Results reported in patent publication US20260355239A1, “COMBINATION OF A T CELL THERAPY AND CONTINUOUS OR INTERMITTENT DGK INHIBITOR DOSING” (Juno Therapeutics, Inc., priority 2022, published 2026).

What was measured:
[1] = test system: OT-1 CD8+ T cells with MC38 tumor cells; assay: Murine Cytotoxic T Lymphocyte Assay (IFN-γ); format: cell-based, mouse; conditions: OT-1 CTL with SIINFEKL-pulsed MC38 cells, 24 h; read-out: msCTL INFg IC50
From the text: 5. Murine Cytotoxic T Lymphocyte Assay
An antigen-specific cytolytic T-cell (CTL) assay was developed to evaluate functionally the ability of DGKα and DGKζ inhibitors to enhance effector T cell mediated tumor cell killing activity. CD8^+ T-cells isolated from the OT-1 transgenic mouse recognize antigen presenting cells, MC38, that present the ovalbumin derived peptide […]. Recognition of the cognate antigen initiates the cytolytic activity of the OT-1 antigen-specific CD8+ T cells.
Functional CTL cells were generated as follows: OT-1 splenocytes from 8-12 week old mice were isolated and expanded in the presence of the […] peptide at 1 μg/mL and mIL2 at 10 U/mL. After three days, fresh media with […] was added. On day 5 of the expansion, the CD8+ T cells were isolated and ready for use. Activated CTL cells may be stored frozen for 6 months. Separately, one million MC38 tumor cells were pulsed with 1 μg/mL of […]-OVA peptide for 3 hours at 37 °C. The cells were washed (3×) with fresh media to remove excess peptide. Finally, CTL cells that were pretreated with DGK inhibitors for 1 hour in a 96-well U bottom plate were combined with the antigen loaded MC38 tumor cells at a 1:10 ratio. The cells were then spun at 700 rpm for 5 min and placed in an incubator overnight at 37 °C After 24 hours, the supernatant was collected for analysis of IFN-γ cytokine levels by AlphaLisa purchased from Perkin Elmer.

[2] = test system: naïve human CD8 T cells; assay: Human CD8 T Cells IFN-γ Assay; format: cell-based; conditions: anti-CD3 + anti-CD28, 20 h, normalized to 3 μM reference compound, read-out: HuCD8 INFG Normalized EC50
Method: 7. Human CD8 T Cells IFN-γ Assay
Frozen naïve human CD8 T cells were thawed in AIM-V media, incubated for 2 h in 37 °C, and counted. The 384-well tissue culture plate was coated overnight at 4 °C with 20 μL anti-human CD3 at […] in PBS, which was removed off the plate before 40,000 cells per 40 microliters CD8 T cells with 0.1 μg/mL soluble anti-human CD28 were added to each well. The compounds were transferred using an Echo liquid handler to the cell plate immediately after the cells were plated. After 20 h incubation at 37 °C incubator, 3 microliters per well supernatants transferred into a new 384-well white assay plate for cytokine measurement.
Interferon-γ (IFN-γ) was quantitated using the AlphLISA kit (Cat #AL217) as described by the manufacturer manual (Perkin Elmer). The counts from each well were converted to IFN-γ concentration (pg/mL).

[3] = test system: Human venous whole blood; assay: Human Whole Blood IFN-γ Assay; format: cell-based; conditions: anti-CD3 + anti-CD28, 24 h, normalized to 3 μM reference compound, read-out: INFg Whole Blood Normalized-Agonist EC50
Method: 9. Human Whole Blood IFN-γ Assay
Human venous whole blood (22.5 μL per well), obtained from healthy donors, was pre-treated with compounds for one hour at 37 °C in a humidified 95% air/5% CO2 incubator. The blood was stimulated with 2.5 μL anti-human CD3 and anti-CD28 mAb at a final concentration of 1 μg/mL each for 24 hours at 37 °C. IFN-γ in the supernatants was measured using AlphLISA kit (Cat #AL217).

SMILES | EC50 [1] | EC50 [2] | EC50 [3]
Cc1ccc(C(c2ccc(F)cc2)N2C[C@H](C)N(c3cc(=O)n(C)c4ccc(C#N)nc34)C[C@H]2C)cc1 (stereo partly drawn) [Compound 10, 8-[(2S,5R)-4-[(4-fluorophenyl)(4-methylphenyl)methyl]-2,5-dimethylpiperazin-1-yl]-5-methyl-6-oxo-5,6-dihydro-1,5-naphthyridine-2-carbonitrile] | 32 nM | 23 nM | 440 nM
CC(c1c(F)cccc1F)N1C[C@H](C)N(c2cc(=O)n(C)c3ccc(C#N)nc23)C[C@H]1C (stereo partly drawn) [Compound 11, 8-[(2S,5R)-4-[1-(2,6-difluorophenyl)ethyl]-2,5-dimethylpiperazin-1-yl]-5-methyl-6-oxo-5,6-dihydro-1,5-naphthyridine-2-carbonitrile] |  | 22 nM | 650 nM
C[C@@H]1CN(c2cc(=O)n(C)c3ccc(C#N)nc23)[C@@H](C)CN1Cc1ccc(F)cc1C(F)F [Compound 9, 8-[(2S,5R)-4-{[2-(difluoromethyl)-4-fluorophenyl]methyl}-2,5-dimethylpiperazin-1-yl]-5-methyl-6-oxo-5,6-dihydro-1,5-naphthyridine-2-carbonitrile] |  | 170 nM | 1500 nM
CCC(c1ccc(F)cc1F)N1C[C@H](C)N(c2cc(=O)n(C)c3ccc(C#N)nc23)C[C@H]1C (stereo partly drawn) [Compound 12, 8-((2S,5R)-4-(1-(2,4-difluorophenyl)propyl)-2,5-dimethylpiperazin-1-yl)-5-methyl-6-oxo-5,6-dihydro-1,5-naphthyridine-2-carbonitrile] |  | 48 nM | 440 nM
CC[C@H]1CN(C(c2ccc(F)cc2)c2nc(C3CC3)no2)[C@H](CC)CN1c1nc(=O)n(C)c2ccc(C#N)nc12 (some centres unmarked) [Compound 26] |  |  | 90 nM
CCC(c1ccc(C(F)(F)F)cc1)N1C[C@H](CC)N(c2nc(=O)n(C)c3ccc(C#N)nc23)C[C@H]1CC (stereo partly drawn) [Compound 18, 4-((2S,5R)-2,5-Diethyl-4-(1-(4-(trifluoromethyl)phenyl)propyl)piperazin-1-yl)-1-methyl-2-oxo-1,2-dihydropyrido[3,2-d]pyrimidine-6-carbonitrile] |  |  | 3750 nM
CC[C@@H]1CN(c2nc(=O)n(C)c3ccc(C#N)nc23)[C@@H](C)CN1C(c1ccc(Cl)cc1)c1ccccn1 (some centres unmarked) [Compound 24] |  |  | 200 nM
C[C@@H]1CN(c2c(C#N)c(=O)n(C)c3ccc(C#N)nc23)CCN1C(c1ccc(F)cc1)c1ccc(F)cc1 [Compound 4, (R)-8-(4-(bis(4-fluorophenyl)methyl)-3-methylpiperazin-1-yl)-5-methyl-6-oxo-5,6-dihydro-1,5-naphthyridine-2,7-dicarbonitrile] | 43 nM | 17 nM | 400 nM
C[C@@H]1CN(c2cc(=O)n(C)c3ccc(C#N)nc23)[C@@H](C)CN1C(c1ccccc1)c1ccc(F)cc1 (stereo partly drawn) [Compound 5, 8-[(2S,5R)-4-[(4-fluorophenyl) (phenyl)methyl]-2,5-dimethylpiperazin-1-yl]-5-methyl-6-oxo-5,6-dihydro-1,5-naphthyridine-2-carbonitrile] |  | 30 nM | 680 nM
CC[C@@H]1CN(c2nc(=O)n(C)c3ccc(C#N)nc23)[C@@H](C)CN1C(c1ccc(F)cc1)c1ccc(C(F)(F)F)cn1 (stereo partly drawn) [Compound 22, 4-((2S,5R)-5-Ethyl-4-((4-fluorophenyl)(5-(trifluoromethyl)pyridin-2-yl)methyl)-2-methylpiperazin-1-yl)-1-methyl-2-oxo-1,2-dihydropyrido[3,2-d]pyrimidine-6-carbonitrile] |  |  | 20 nM
CC[C@@H]1CN(c2nc(=O)n(C)c3ccc(C#N)nc23)[C@@H](C)CN1C(c1ccc(F)cc1)c1ccc(C(F)(F)F)cn1 (stereo partly drawn) [Compound 21, 4-((2S,5R)-5-Ethyl-4-((4-fluorophenyl)(5-(trifluoromethyl)pyridin-2-yl)methyl)-2-methylpiperazin-1-yl)-1-methyl-2-oxo-1,2-dihydropyrido[3,2-d]pyrimidine-6-carbonitrile] |  |  | 43 nM
C[C@@H]1CN(c2nc(=O)n(C)c3ccc(C#N)nc23)[C@@H](C)CN1C(c1ccc(F)cc1)c1ccc(C(F)(F)F)cn1 (stereo partly drawn) [Compound 28, 4-((2S,5R)-4-((4-fluorophenyl)(5-(trifluoromethyl)pyridin-2-yl)methyl)-2,5-dimethylpiperazin-1-yl)-1-methyl-2-oxo-1,2-dihydropyrido[3,2-d]pyrimidine-6-carbonitrile] |  |  | 240 nM
COC(=O)C1CN(c2cc(=O)n(C)c3ccc(C#N)nc23)CCN1C(c1ccc(F)cc1)c1ccc(F)cc1 (centres unmarked) [Compound 2, Methyl 1-(bis(4-fluorophenyl)methyl)-4-(6-cyano-1-methyl-2-oxo-1,2-dihydro-1,5-naphthyridin-4-yl)piperazine-2-carboxylate] | 64 nM | 62 nM | 520 nM
CC[C@@H]1CN(c2nc(=O)n(C)c3ccc(C#N)nc23)[C@@H](C)CN1C(c1ccc(Cl)cc1)c1ccccn1 (some centres unmarked) [Compound 23] |  |  | 10500 nM
CC[C@H]1CN(C(c2ccc(F)cc2)c2nc(C3CC3)no2)[C@H](CC)CN1c1nc(=O)n(C)c2ccc(C#N)nc12 (some centres unmarked) [Compound 25] |  |  | 15 nM
CC[C@@H]1CN(c2nc(=O)n(C)c3ccc(C#N)nc23)[C@@H](C)CN1C(C)c1ccc(C(F)(F)F)cc1 (stereo partly drawn) [Compound 20, 4-((2S,5R)-5-Ethyl-2-methyl-4-(1-(4-(trifluoromethyl)phenyl)ethyl)piperazin-1-yl)-1-methyl-2-oxo-1,2-dihydropyrido[3,2-d]pyrimidine-6-carbonitrile] |  |  | 32 nM
CCC[C@@H]1CN(c2nc(=O)n(C)c3ccc(C#N)nc23)[C@@H](C)CN1C(C)c1ccc(C(F)(F)F)cc1 (stereo partly drawn) [Compound 33, 1-Methyl-4-((2S,5R)-2-methyl-5-propyl-4-(1-(4-(trifluoromethyl)phenyl)ethyl)piperazin-1-yl)-2-oxo-1,2-dihydropyrido[3,2-d]pyrimidine-6-carbonitrile] |  |  | 20000 nM
COc1ccc2c(n1)c(N1C[C@@H](C)N(C(c3ccc(F)cc3)c3ccc(Cl)cc3)C[C@@H]1C)cc(=O)n2C (stereo partly drawn) [Compound 8, 4-[(2S,5R)-4-[(4-chlorophenyl)(4-fluorophenyl)methyl]-2,5-dimethylpiperazin-1-yl]-6-methoxy-1-methyl-1,2-dihydro-1,5-naphthyridin-2-one] |  | 12000 nM | 
Cc1ccc(C(c2ccc(C)cc2)N2C[C@H](C)N(c3cc(=O)n(C)c4ccc(C#N)nc34)C[C@H]2C)cc1 [Compound 16, 8-[(2S,5R)-4-[bis(4-methylphenyl)methyl]-2,5-dimethylpiperazin-1-yl]-5-methyl-6-oxo-5,6-dihydro-1,5-naphthyridine-2-carbonitrile] | 72 nM | 9.5 nM | 520 nM
CC[C@@H]1CN(c2nc(=O)n(C)c3ccc(C#N)nc23)[C@@H](C)CN1C(C)c1ccc(C(F)(F)F)cc1 (stereo partly drawn) [Compound 19, 4-((2S,5R)-5-Ethyl-2-methyl-4-(1-(4-(trifluoromethyl)phenyl)ethyl)piperazin-1-yl)-1-methyl-2-oxo-1,2-dihydropyrido[3,2-d]pyrimidine-6-carbonitrile] |  |  | 520 nM
